# Data taken from PubChem BioAssay AID1117338.
# The source made the active and inactive calls. No rule for the calls is given here.
# System: SW480 viability, CellTiter-Glo luminescence
# Experiment: 50% inhibitory concentration in SW480 colon cancer line, survival by CellTiter-Glo luminescence, dose-dependent response (AID 1117338)
row,SMILES,IC50
1,OCCN1CCN(CC/C=C2/c3ccccc3Sc3ccc(C(F)(F)F)cc32)CC1,3.93 µM
2,O=C1[O][Bi][O]c2ccccc21,> 20 µM (inactive)
3,O=C(O)C1(C(=O)O)CCC1.[NH2-].[NH2-].[Pt+2],> 20 µM (inactive)
4,CCCCCCCCCCCCCC[N+](C)(C)C,0.933 µM
5,Cc1ccc([N+](=O)[O-])[c]2c1[O][Hg]2,1.13 µM
6,Cn1cnc([N+](=O)[O-])c1Sc1ncnc2nc[nH]c12,9.44 µM (inactive)
7,CC(=O)[O][Hg][c]1ccccc1,0.543 µM
8,O=Cc1ccc(O)c(O)c1O,11.3 µM (inactive)
